# Test results reported in patent publication EP3922268B1, “NEW DERIVATIVES OBTAINED FROM HYALURONIC ACID AND CARNOSINE” (Fidia Farmaceutici S.p.A., priority 2020, dated 2023).
# Test system: HFF1 cell line (consisting of fibroblasts derived from human skin)
# Test: MTT cell viability assay
# Assay type: cell-based
# Settings: HFF1 cells, 5 hours incubation; carnosine alone 0.136 mM
# Procedure: Trial design. The cell response of conjugate (1) in terms of cell viability was determined in vitro by performing the MTT assay (Mosmann T, J Immunol Methods 1983; 65:55-63) on the HFF1 cell line (consisting of fibroblasts derived from human skin). The cells were used at passages 20-23, cultured at 37°C and 5% CO2 in Dulbecco's Modified Eagle Medium (DMEM) with integrated glucose and added with FBS (1%). To conduct the MTT assay, the cells were plated in 96-well multiwell plates (7000 cells per well) in DMEM culture medium with integrated glucose and added with 1% FBS; after 48 hours they were treated with control medium, or with medium alternatively containing carnosine, conjugate (1) prepared as described in EXAMPLE 1, or complexes of conjugate (1) with Cu(II), for 5 hours of incubation at 37°C and 5% CO2. Each treatment was performed in triplicate. […] After removal of the liquid from each well and addition of DMSO (100 µl), the absorbance of the formazan salt (blue) produced by the cleavage reaction of the tetrazolium ring of MTT (yellow) by the mitochondrial enzyme succinate dehydrogenase present in the viable cells only was measured in a multiplate reader (Synergy™ 2 Multi-Mode Microplate Reader) at the wavelength of 570 nm. […]
smiles,measurement,value
"NCCC(=O)N[C@@H](Cc1c[nH]cn1)C(=O)O [carnosine, β-alanyl-L-histidine]",increase in cell viability,did not lead to any increase in cell viability
